Measurements: PubChem BioAssay (NCI)
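Each compound was tested at five concentrations against cells in 96-well plates for 48 hours. Definition used: TGI = concentration required for complete inhibition of growth.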

What was measured:
Experiment in all cases: growth of human tumour cells (NCI), 48 h
[1] = test system: SNB-78 CNS
[2] = test system: DMS 114 small cell lung
[3] = test system: IGROV1 ovarian
[4] = test system: HCC-2998 colon
[5] = test system: SF-295 CNS
[6] = test system: HL-60(TB) leukemia
[7] = test system: HCT-116 colon
[8] = test system: SK-MEL-2 melanoma
[9] = test system: HT29 colon
[10] = test system: SK-MEL-5 melanoma
[11] = test system: OVCAR-5 ovarian
[12] = test system: HOP-18 NSCLC
[13] = test system: RPMI-8226 leukemia
[14] = test system: UACC-62 melanoma
[15] = test system: U251 CNS
[16] = test system: SK-MEL-28 melanoma
[17] = test system: MALME-3M melanoma
[18] = test system: UO-31 renal
[19] = test system: RXF 393 renal
[20] = test system: HCT-15 colon
[21] = test system: K-562 leukemia
[22] = test system: KM20L2 colon
[23] = test system: KM12 colon
[24] = test system: CAKI-1 renal
[25] = test system: OVCAR-4 ovarian
[26] = test system: TK-10 renal
[27] = test system: XF 498 CNS
[28] = test system: HOP-92 NSCLC
[29] = test system: NCI-H23 lung
[30] = test system: M14 melanoma
[31] = test system: SF-539 CNS
[32] = test system: COLO 205 colon
[33] = test system: SNB-19 CNS
[34] = test system: M19-MEL melanoma
[35] = test system: DLD-1 colon
[36] = test system: SR leukemia
[37] = test system: HOP-62 NSCLC
[38] = test system: MOLT-4 leukemia
[39] = test system: OVCAR-8 ovarian
[40] = test system: 786-0 renal
[41] = test system: SK-OV-3 ovarian
[42] = test system: A549 NSCLC
[43] = test system: SW-620 colon
[44] = test system: NCI-H460 lung
[45] = test system: CCRF-CEM leukemia
[46] = test system: OVCAR-3 ovarian
[47] = test system: SN12C renal
[48] = test system: NCI-H522 lung
[49] = test system: LXFL 529 NSCLC
[50] = test system: SF-268 CNS
[51] = test system: ACHN renal
[52] = test system: EKVX NSCLC
[53] = test system: RXF-631 renal
[54] = test system: UACC-257 melanoma
[55] = test system: SNB-75 CNS
[56] = test system: DMS 273 small cell lung

CCCCSC1CCSc2c1ccc1ccccc21 (stereo not given)
TGI [1]: > 100 µM | TGI [2]: > 100 µM | TGI [3]: > 100 µM | TGI [4]: > 100 µM | TGI [5]: > 100 µM | TGI [6]: > 100 µM | TGI [7]: > 100 µM | TGI [8]: > 100 µM | TGI [9]: > 100 µM | TGI [10]: > 100 µM | TGI [11]: > 100 µM | TGI [12]: > 100 µM | TGI [13]: > 100 µM | TGI [14]: > 100 µM | TGI [15]: > 100 µM | TGI [16]: > 100 µM | TGI [17]: 46.9 µM | TGI [18]: > 100 µM | TGI [19]: > 100 µM | TGI [20]: > 100 µM | TGI [21]: > 100 µM | TGI [22]: > 100 µM | TGI [23]: > 100 µM | TGI [24]: > 100 µM | TGI [25]: > 100 µM | TGI [26]: > 100 µM | TGI [27]: 63.9 µM | TGI [28]: > 100 µM | TGI [29]: > 100 µM | TGI [30]: > 100 µM | TGI [31]: > 100 µM | TGI [32]: > 100 µM | TGI [33]: > 100 µM | TGI [34]: > 100 µM | TGI [35]: > 100 µM | TGI [36]: > 100 µM | TGI [37]: > 100 µM | TGI [38]: > 100 µM | TGI [39]: > 100 µM | TGI [40]: > 100 µM | TGI [41]: > 100 µM | TGI [42]: > 100 µM

COc1ccc(C2=NN(C(C)=O)c3nc4ccccc4nc3O2)cc1
TGI [2]: > 100 µM | TGI [43]: > 100 µM | TGI [3]: 27.4 µM | TGI [44]: > 100 µM | TGI [4]: > 100 µM | TGI [5]: > 100 µM | TGI [6]: > 100 µM | TGI [45]: > 100 µM | TGI [46]: > 100 µM | TGI [7]: > 100 µM | TGI [8]: > 100 µM | TGI [9]: > 100 µM | TGI [47]: > 100 µM | TGI [12]: 88.9 µM | TGI [13]: > 100 µM | TGI [14]: > 100 µM | TGI [15]: 61.8 µM | TGI [48]: 63.8 µM | TGI [16]: > 100 µM | TGI [17]: > 100 µM | TGI [18]: 90.4 µM | TGI [49]: > 100 µM | TGI [50]: > 100 µM | TGI [20]: > 100 µM | TGI [21]: > 100 µM | TGI [51]: > 100 µM | TGI [23]: > 100 µM | TGI [25]: 98.4 µM | TGI [26]: 52.1 µM | TGI [52]: > 100 µM | TGI [27]: 49.2 µM | TGI [53]: > 100 µM | TGI [28]: 62.5 µM | TGI [29]: > 100 µM | TGI [31]: 43.1 µM | TGI [54]: > 100 µM | TGI [32]: > 100 µM | TGI [55]: 21.7 µM | TGI [33]: 87.7 µM | TGI [34]: > 100 µM | TGI [56]: > 100 µM | TGI [35]: 88 µM | TGI [36]: > 100 µM | TGI [37]: 64 µM | TGI [38]: > 100 µM | TGI [39]: > 100 µM | TGI [40]: 48.7 µM | TGI [42]: > 100 µM
